In the NIST ThermoML archive (doi:10.1016/j.tca.2017.08.010) one finds binary diffusion coefficient data, which are given here for 2 compounds.

This data set is described as follows: mn = molality of the nth substance listed, in mol/kg. The following applies: 101 kPa, Liquid, Optical method.

As to `CN1c2ccccc2Sc2ccccc21` [10-methylphenothiazine] + COC(=O)OC, the binary diffusion coefficient was determined as 9.16e-10 m2/s (288.15 K, m1 = 0.023); 6.72e-10 m2/s (288.15 K, m1 = 0.071); 8.56e-10 m2/s (288.15 K, m1 = 0.119); 1.11e-09 m2/s (293.15 K, m1 = 0.023); 8.44e-10 m2/s (293.15 K, m1 = 0.071); 1.04e-09 m2/s (293.15 K, m1 = 0.119). The binary diffusion coefficient amounted to 1.32e-09 m2/s (298.15 K, m1 = 0.023); 1.06e-09 m2/s (298.15 K, m1 = 0.071); 1.26e-09 m2/s (298.15 K, m1 = 0.119); 1.54e-09 m2/s (303.15 K, m1 = 0.023); 1.32e-09 m2/s (303.15 K, m1 = 0.071); 1.47e-09 m2/s (303.15 K, m1 = 0.119). Moreover, the binary diffusion coefficient by setting is: (308.15 K, m1 = 0.023) 1.79e-09 m2/s; (308.15 K, m1 = 0.071) 1.59e-09 m2/s; (308.15 K, m1 = 0.119) 1.71e-09 m2/s; (313.15 K, m1 = 0.023) 2.07e-09 m2/s; (313.15 K, m1 = 0.071) 1.92e-09 m2/s; (313.15 K, m1 = 0.119) 1.99e-09 m2/s.

Regarding `[Cl-].[K+]` [potassium chloride] + O, the binary diffusion coefficient (298.15 K, m1 = 0.342) came out at 1.81e-09 m2/s.
